Measurements published in ChEMBL document CHEMBL1142737, “Organometallic anticancer agents: cellular uptake and cytotoxicity studies on thiol derivatives of the antitumor agent molybdocene dichloride” (J Med Chem, 2005).

Experiments:
[1] = Ability to inhibit the growth of human breast line MCF-7
[2] = Cytotoxicity against V79 chinese hamster lung cells was determined via MTT assay after 72 hr; type: cell-based, Cricetulus griseus
[3] = Ability to inhibit the growth of ovarian cell line 2008; type: cell-based, Homo sapiens
[4] = […] lethal dose in CF1 mice bearing fluid Ehrlich Ascites tumor at a dose of 75-100 mg/kg; type: ADME, organism-based; conditions: mouse, in vivo
[5] = Cytotoxicity against V79 chinese hamster lung cells was determined via MTT assay after 24 hr; type: cell-based, Cricetulus griseus

MOLYBDOCENE DICHLORIDE
IC50 [1]: 620 µM | IC50 [2]: 350 µM | IC50 [3]: 700 µM | LD50 [4]: 175 mg/kg | IC50 [5]: 820 µM
